Data as given in patent publication US11008293B2, “5-carboxamide-2-thiobarbituric acids and use thereof as medicaments” (FONDAZIONE ISTITUTO ITALIANO DI TECNOLOGIA, priority 2017, dated 2021).

Experiments:
Assay type in all cases: cell-based
A549 = experiment: Antiproliferative activity on A549 cancer cells; settings: Homo sapiens
MCF7 = experiment: Antiproliferative activity on MCF7 cancer cells; settings: Homo sapiens
HeLa = experiment: Antiproliferative activity on HeLa cancer cells; settings: Homo sapiens
DU145 = experiment: Antiproliferative activity on DU145 cancer cells; settings: Homo sapiens, DU-145

Row | SMILES | IC50 (A549) [µM] | IC50 (MCF7) [µM] | IC50 (HeLa) [µM] | IC50 (DU145) [µM]
1 | O=C(Nc1ccc(O)cc1)c1c(O)n(-c2ccccc2)c(=S)n(-c2ccccc2)c1=O | 37.1 ± 3.7 | 66.1 ± 7.5 | 42.9 ± 6.1 | 42.5 ± 7.7
2 | O=C(Nc1cccc(O)c1)c1c(O)n(-c2ccccc2)c(=S)n(-c2ccccc2)c1=O | 59.4 ± 6.1 | 94.2 ± 3.1 | 39.1 ± 0.7 | 49.6 ± 2.7
3 | COc1cccc(NC(=O)c2c(O)n(-c3ccccc3)c(=S)n(-c3ccccc3)c2=O)c1 | 6.9 ± 0.2 | 14 ± 0.9 | 8.5 ± 0.5 | 12.5 ± 1.5
4 | COc1cc(NC(=O)c2c(O)n(-c3ccccc3)c(=S)n(-c3ccccc3)c2=O)cc(OC)c1O | 17.5 ± 1.1 | 53.5 ± 1.9 | 18.1 ± 0.8 | 26.7 ± 0.1
